Experimental data as given in PubChem BioAssay (NCI).
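How tested: cells in 96-well plates exposed to compound for 48 hours at five concentrations. At the GI50, growth is halved. TGI: total growth inhibition.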

What was measured:
Assay in all cases: growth of human tumour cells (NCI), 48 h
786-0 renal = test system: 786-0 renal
A498 renal = test system: A498 renal
A549 NSCLC = test system: A549 NSCLC
ACHN renal = test system: ACHN renal
BT-549 breast = test system: BT-549 breast
CAKI-1 renal = test system: CAKI-1 renal
CCRF-CEM leukemia = test system: CCRF-CEM leukemia
COLO 205 colon = test system: COLO 205 colon
DU-145 prostate = test system: DU-145 prostate
EKVX NSCLC = test system: EKVX NSCLC
HCC-2998 colon = test system: HCC-2998 colon
HCT-116 colon = test system: HCT-116 colon
HCT-15 colon = test system: HCT-15 colon
HL-60(TB) leukemia = test system: HL-60(TB) leukemia
HOP-62 NSCLC = test system: HOP-62 NSCLC
HOP-92 NSCLC = test system: HOP-92 NSCLC
HS 578T breast = test system: HS 578T breast
HT29 colon = test system: HT29 colon
IGROV1 ovarian = test system: IGROV1 ovarian
K-562 leukemia = test system: K-562 leukemia
KM12 colon = test system: KM12 colon
LOX IMVI melanoma = test system: LOX IMVI melanoma
M14 melanoma = test system: M14 melanoma
MALME-3M melanoma = test system: MALME-3M melanoma
MDA-MB-231 breast = test system: MDA-MB-231 breast
MDA-MB-435 = test system: MDA-MB-435
MOLT-4 leukemia = test system: MOLT-4 leukemia
NCI-H226 lung = test system: NCI-H226 lung
NCI-H23 lung = test system: NCI-H23 lung
NCI-H460 lung = test system: NCI-H460 lung
NCI-H522 lung = test system: NCI-H522 lung
NCI/ADR-RES ovarian = test system: NCI/ADR-RES ovarian
OVCAR-3 ovarian = test system: OVCAR-3 ovarian
OVCAR-4 ovarian = test system: OVCAR-4 ovarian
OVCAR-5 ovarian = test system: OVCAR-5 ovarian
OVCAR-8 ovarian = test system: OVCAR-8 ovarian
PC-3 prostate = test system: PC-3 prostate
RPMI-8226 leukemia = test system: RPMI-8226 leukemia
RXF 393 renal = test system: RXF 393 renal
SF-268 CNS = test system: SF-268 CNS
SF-295 CNS = test system: SF-295 CNS
SF-539 CNS = test system: SF-539 CNS
SK-MEL-2 melanoma = test system: SK-MEL-2 melanoma
SK-MEL-28 melanoma = test system: SK-MEL-28 melanoma
SK-MEL-5 melanoma = test system: SK-MEL-5 melanoma
SK-OV-3 ovarian = test system: SK-OV-3 ovarian
SN12C renal = test system: SN12C renal
SNB-19 CNS = test system: SNB-19 CNS
SNB-75 CNS = test system: SNB-75 CNS
SR leukemia = test system: SR leukemia
SW-620 colon = test system: SW-620 colon
T-47D breast = test system: T-47D breast
TK-10 renal = test system: TK-10 renal
U251 CNS = test system: U251 CNS
UACC-257 melanoma = test system: UACC-257 melanoma
UACC-62 melanoma = test system: UACC-62 melanoma
UO-31 renal = test system: UO-31 renal

Question: Which results are given for C=C1C(=O)O[C@H]2[C@H]1CC/C(COC(=O)NCc1[nH]nc3ccccc13)=C\CC[C@@]1(C)O[C@@H]21?
Answer: GI50 (786-0 renal): 1.72 µM; TGI (786-0 renal): 3.63 µM; GI50 (A498 renal): 12.6 µM; TGI (A498 renal): 26.3 µM; GI50 (A549 NSCLC): 8.61 µM; TGI (A549 NSCLC): 25.7 µM; GI50 (ACHN renal): 1.11 µM; TGI (ACHN renal): 2.63 µM; GI50 (BT-549 breast): 2.86 µM; TGI (BT-549 breast): 8.93 µM; GI50 (CAKI-1 renal): 1.37 µM; TGI (CAKI-1 renal): 3.91 µM; GI50 (CCRF-CEM leukemia): 0.337 µM; TGI (CCRF-CEM leukemia): 2.51 µM; GI50 (COLO 205 colon): 1.27 µM; TGI (COLO 205 colon): 2.93 µM; GI50 (DU-145 prostate): 1.24 µM; TGI (DU-145 prostate): 3.03 µM; GI50 (EKVX NSCLC): 3.1 µM; TGI (EKVX NSCLC): 13.4 µM; GI50 (HCC-2998 colon): 2.78 µM; TGI (HCC-2998 colon): 8.97 µM; GI50 (HCT-116 colon): 0.839 µM; TGI (HCT-116 colon): 2.53 µM; GI50 (HCT-15 colon): 1.07 µM; TGI (HCT-15 colon): 2.64 µM; GI50 (HL-60(TB) leukemia): 0.458 µM; TGI (HL-60(TB) leukemia): 2.73 µM; GI50 (HOP-62 NSCLC): 9.72 µM; TGI (HOP-62 NSCLC): 23.4 µM; GI50 (HOP-92 NSCLC): 2.03 µM; TGI (HOP-92 NSCLC): 4.11 µM; GI50 (HS 578T breast): 4.35 µM; TGI (HS 578T breast): 27.1 µM; GI50 (HT29 colon): 1.18 µM; TGI (HT29 colon): 2.69 µM; GI50 (IGROV1 ovarian): 2.24 µM; TGI (IGROV1 ovarian): 9.26 µM; GI50 (K-562 leukemia): 0.473 µM; TGI (K-562 leukemia): 17.5 µM; GI50 (KM12 colon): 4.25 µM; TGI (KM12 colon): 18.1 µM; GI50 (LOX IMVI melanoma): 1.05 µM; TGI (LOX IMVI melanoma): 2.43 µM; GI50 (M14 melanoma): 2.03 µM; TGI (M14 melanoma): 5.49 µM; GI50 (MALME-3M melanoma): 2.06 µM; TGI (MALME-3M melanoma): 4.24 µM; GI50 (MDA-MB-231 breast): 1.64 µM; TGI (MDA-MB-231 breast): 3.34 µM; GI50 (MDA-MB-435): 1.64 µM; TGI (MDA-MB-435): 4.42 µM; GI50 (MOLT-4 leukemia): 1.71 µM; TGI (MOLT-4 leukemia): 5.97 µM; GI50 (NCI-H226 lung): 16.3 µM; TGI (NCI-H226 lung): 33.7 µM; GI50 (NCI-H23 lung): 2.19 µM; TGI (NCI-H23 lung): 7.24 µM; GI50 (NCI-H460 lung): 3.9 µM; TGI (NCI-H460 lung): 15.5 µM; GI50 (NCI-H522 lung): 1.21 µM; TGI (NCI-H522 lung): 2.65 µM; GI50 (NCI/ADR-RES ovarian): 6.22 µM; TGI (NCI/ADR-RES ovarian): 22.5 µM; GI50 (OVCAR-3 ovarian): 1.06 µM; TGI (OVCAR-3 ovarian): 2.38 µM; GI50 (OVCAR-4 ovarian): 4.06 µM; TGI (OVCAR-4 ovarian): 17.5 µM; GI50 (OVCAR-5 ovarian): 2.59 µM; TGI (OVCAR-5 ovarian): 6.14 µM; GI50 (OVCAR-8 ovarian): 2.67 µM; TGI (OVCAR-8 ovarian): 12.3 µM; GI50 (PC-3 prostate): 1.67 µM; TGI (PC-3 prostate): 5.79 µM; GI50 (RPMI-8226 leukemia): 0.437 µM; TGI (RPMI-8226 leukemia): 2.98 µM; GI50 (RXF 393 renal): 0.719 µM; TGI (RXF 393 renal): 2.23 µM; GI50 (SF-268 CNS): 5.52 µM; TGI (SF-268 CNS): 20 µM; GI50 (SF-295 CNS): 7.24 µM; TGI (SF-295 CNS): 21.8 µM; GI50 (SF-539 CNS): 1.82 µM; TGI (SF-539 CNS): 4.72 µM; GI50 (SK-MEL-2 melanoma): 4.11 µM; TGI (SK-MEL-2 melanoma): 15.5 µM; GI50 (SK-MEL-28 melanoma): 1.69 µM; TGI (SK-MEL-28 melanoma): 3.7 µM; GI50 (SK-MEL-5 melanoma): 2.73 µM; TGI (SK-MEL-5 melanoma): 10.5 µM; GI50 (SK-OV-3 ovarian): 11.8 µM; TGI (SK-OV-3 ovarian): 24.4 µM; GI50 (SN12C renal): 1.68 µM; TGI (SN12C renal): 4.64 µM; GI50 (SNB-19 CNS): 5.31 µM; TGI (SNB-19 CNS): 19.6 µM; GI50 (SNB-75 CNS): 5.06 µM; TGI (SNB-75 CNS): 21.1 µM; GI50 (SR leukemia): 0.27 µM; TGI (SR leukemia): 2.89 µM; GI50 (SW-620 colon): 0.596 µM; TGI (SW-620 colon): 2.28 µM; GI50 (T-47D breast): 1.74 µM; TGI (T-47D breast): 5.43 µM; GI50 (TK-10 renal): 1.82 µM; TGI (TK-10 renal): 3.49 µM; GI50 (U251 CNS): 3.16 µM; TGI (U251 CNS): 13.7 µM; GI50 (UACC-257 melanoma): 2.13 µM; TGI (UACC-257 melanoma): 5.01 µM; GI50 (UACC-62 melanoma): 1.56 µM; TGI (UACC-62 melanoma): 3.67 µM; GI50 (UO-31 renal): 1.51 µM; TGI (UO-31 renal): 2.95 µM
